Values joined by “and” are separate entries in the source; they are usually repeats but may differ in a detail not shown here. Identical values can stand only once.
Legend:
Conditions in all cases: incubation time: 72 h
[1] = tested on: CAL-51; assay: normalised response (% of control), CellTiter-Glo; higher = more viable cells (100 = DMSO, 0 = benzethonium chloride kill control)
Method in brief: (§1)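 Each value is the plate-normalised signal at one concentration of the series. Breast cancer cell lines (20 µl suspension) were incubated 72 h in 384-well plates with compound at 5 concentrations in 10-fold steps over a compound-specific 10,000-fold range. CellTox Green and then CellTiter-Glo were read, and each plate was scaled to 0.1 % DMSO (100) and a positive kill control (0).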

[2] = tested on: MCF-10A; assay: as above
Method in brief: as §1

[3] = tested on: CAL-148; assay: as above
Method in brief: as §1

[4] = tested on: MDA-MB-436; assay: as above
Method in brief: as §1

[5] = tested on: MDA-MB-468; assay: as above
Method in brief: as §1

[6] = tested on: MDA-MB-453; assay: as above
Method in brief: as §1

[7] = tested on: HCC1143; assay: as above
Method in brief: as §1

[8] = tested on: BT-549; assay: as above
Method in brief: as §1

[9] = tested on: BT-474; assay: as above
Method in brief: as §1

[10] = tested on: HCC1599; assay: as above
Method in brief: as §1

[11] = tested on: DU-4475; assay: as above
Method in brief: as §1

[12] = tested on: CAL-120; assay: as above
Method in brief: as §1

[13] = tested on: SK-BR-3; assay: as above
Method in brief: as §1

[14] = tested on: Hs578T; assay: as above
Method in brief: as §1

[15] = tested on: CAL-85-1; assay: as above
Method in brief: as §1

[16] = tested on: MFM-223; assay: as above
Method in brief: as §1

[17] = tested on: HCC1937; assay: as above
Method in brief: as §1

[18] = tested on: MDA-MB-231; assay: as above
Method in brief: as §1

[19] = tested on: HDQ-P1; assay: as above
Method in brief: as §1

[20] = tested on: CAL-51; assay: normalised viability (% of control), CellTiter-Blue; higher = more viable cells (about 100 = DMSO control)
Method: (§2)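 DSRT, CellTiter-Blue viability, 72 h incubation. Signal is normalised to DMSO and benzethonium chloride controls. Value is the normalised response at dose 7.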

[21] = tested on: CAL-148; assay: as above
Method: as §2

[22] = tested on: MDA-MB-453; assay: as above
Method: as §2

[23] = tested on: DU-4475; assay: as above
Method: as §2

[24] = tested on: CAL-85-1; assay: as above
Method: as §2

[25] = tested on: HDQ-P1; assay: as above
Method: as §2

SMILES | normalised response [1] [%] | normalised response [2] [%] | normalised response [3] [%] | normalised response [4] [%] | normalised response [5] [%] | normalised response [6] [%] | normalised response [7] [%] | normalised response [8] [%] | normalised response [9] [%] | normalised response [10] [%] | normalised response [11] [%] | normalised response [12] [%] | normalised response [13] [%] | normalised response [14] [%] | normalised response [15] [%] | normalised response [16] [%] | normalised response [17] [%] | normalised response [18] [%] | normalised response [19] [%] | normalised viability [20] | normalised viability [21] | normalised viability [22] | normalised viability [23] | normalised viability [24] | normalised viability [25]
CO[C@@]12[C@H](COC(N)=O)C3=C(C(=O)C(C)=C(N)C3=O)N1C[C@@H]1N[C@@H]12 [Mitomycin C] (1000 nM) | 60.2 | 93 | 90.9 | 88.3 | 86 | 97.9 | 99.4 | 65.7 | 90.2 | 84.2 | 96.9 | 94.1 | 96.7 | 102 | 95.6 | 90.1 | 95.2 | 97.4 | 97 | 108% | 96.3% | 91.4% | 95.6% | 77.2% | 88.9%
CCNC(=O)c1noc(-c2cc(C(C)C)c(O)cc2O)c1-c1ccc(CN2CCOCC2)cc1 [NVP-AUY922] (100 nM) | 14.8 | 15.2 | 27.6 | 44.6 | 28.7 | 32.3 | 36.8 | 41.1 | 25 | 71 | 0.04 | 47.5 | 35.8 | 39.1 | 20.5 | 43.4 | 28.7 | 24.6 | 23.5 | 10.1% | 15.9% | 8.47% | 0.71% | 28.6% | 31.8%
CC1(C)CCC(c2ccc(Cl)cc2)=C(CN2CCN(c3ccc(C(=O)NS(=O)(=O)c4ccc(N[C@H](CCN5CCOCC5)CSc5ccccc5)c(S(=O)(=O)C(F)(F)F)c4)cc3)CC2)C1 [Navitoclax] (1000 nM) | 90.8 | 97.8 | 78.5 | 95.3 | 82.8 | 80.9 | 82.9 | 92.5 | 58.1 | 97.3 | 85.9 | 67.8 | 85.5 | 93.1 | 90 | 85.8 | 83.4 | 49.2 | 73 | 97.6% | 80.1% | 75.5% | 40.2% | 81.2% | 68.2%
Cc1cn(-c2cc(NC(=O)c3ccc(C)c(Nc4nccc(-c5cccnc5)n4)c3)cc(C(F)(F)F)c2)cn1 [Nilotinib] (1000 nM) | 70.9 | 107 | 84.4 | 103 | 93 | 105 | 94 | 109 | 92.9 | 105 | 97.7 | 100 | 97.5 | 105 | 102 | 97.3 | 96.5 | 96.5 | 104 | 107% and 117% | 93.5% and 93.9% | 88.3% and 97.5% | 113% and 98.9% | 84.7% and 89.2% | 91.7% and 81.1%
O=C(CCCCCCC(=O)Nc1ccccc1)NO [Vorinostat] (1000 nM) | 72.2 | 104 | 90.6 | 89.6 | 69.4 | 61.2 | 90.2 | 100 | 89.4 | 98.9 | 86.5 | 85.9 | 89.5 | 95.8 | 93.7 | 91.6 | 85.2 | 85.4 | 85 | 107% and 99.4% | 83.7% and 89.3% | 51.6% and 54.1% | 103% and 97.4% | 84% and 86.3% | 80.8% and 62.8%

— the supplement of paper PMC4862054
